Reference: patent publication US8912214B2, “Use of Chk2 kinase inhibitors for cancer treatment” (The United States of America, as Represented by the …, priority 2005, dated 2014)
pEC50: −log10 of the molar value. Like-named read-outs stand apart in the source and are kept apart here.

Columns and labels:
Assay type in all cases: biochemical
Chk2 [1] = biological target: T1, Chk2 (Homo sapiens, UniProt O96017); test: IMAP Chk2 high-throughput screening assay (fluorescence polarization)
Chk1 [2] = biological target: T2, Chk1 (Homo sapiens, UniProt O14757); test: Chk1 inhibitory activity of screening hits; conditions: FIG. 2
T2 sequence (O14757 1-476): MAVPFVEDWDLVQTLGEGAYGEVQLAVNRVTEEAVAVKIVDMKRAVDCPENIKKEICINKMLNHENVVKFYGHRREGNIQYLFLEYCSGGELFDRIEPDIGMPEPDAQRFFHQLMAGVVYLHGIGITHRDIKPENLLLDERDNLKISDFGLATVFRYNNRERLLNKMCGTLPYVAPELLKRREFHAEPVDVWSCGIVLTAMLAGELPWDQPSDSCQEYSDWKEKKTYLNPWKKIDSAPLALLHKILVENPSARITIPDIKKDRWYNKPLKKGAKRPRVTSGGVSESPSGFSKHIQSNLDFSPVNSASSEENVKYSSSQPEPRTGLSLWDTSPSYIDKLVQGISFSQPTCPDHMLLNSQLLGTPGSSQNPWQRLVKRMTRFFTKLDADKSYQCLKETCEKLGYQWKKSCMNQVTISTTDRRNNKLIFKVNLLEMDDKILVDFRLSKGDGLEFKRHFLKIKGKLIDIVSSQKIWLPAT

Chk2 [3] = biological target: T1, Chk2; test: In vitro Chk2 kinase assay (γ32P-ATP, SDS-PAGE); conditions: with increasing concentration; 30° C.; FIGS. 4 and 5
Procedure: (§1) Following on from the data obtained from high-throughput screening, another assay is employed to measure Chk2 kinase activity. This assay is based on using γ^32P-labeled ATP to mediate phosphorylation of the target substrate and autophosphorylation of Chk2. Histone H1 or Cdc25C is used as test substrate. The reactions are performed at 30° C. for appropriate times, then the samples have 2×SDS loading buffer added to quench the reaction. The samples are boiled for about 5 minutes and then subjected to SDS-PAGE.

Chk1 [4] = biological target: T2, Chk1; test: In vitro Chk1 kinase assay (γ32P-ATP, SDS-PAGE); conditions: FIG. 6
Description: FIG. 6 illustrates inhibition of Chk1 kinase activity by NSC 109555 using an in vitro kinase assay. Top bands indicate the level of Chk1 autophosphorylation, bottom bands indicate the level of histone H1 phosphorylation.
as §1
Staurosporine is used as a positive control to confirm Chk2 inhibition (See, FIG. 4). Following on from this, NSC 109555 is used in this assay and is depicted in FIG. 5. […].

[5] = IMAP assay, fluorescein-labeled peptide substrate, read-out: EC50 (Chk2 inhibition)

T1 sequence (O96017 whole entry): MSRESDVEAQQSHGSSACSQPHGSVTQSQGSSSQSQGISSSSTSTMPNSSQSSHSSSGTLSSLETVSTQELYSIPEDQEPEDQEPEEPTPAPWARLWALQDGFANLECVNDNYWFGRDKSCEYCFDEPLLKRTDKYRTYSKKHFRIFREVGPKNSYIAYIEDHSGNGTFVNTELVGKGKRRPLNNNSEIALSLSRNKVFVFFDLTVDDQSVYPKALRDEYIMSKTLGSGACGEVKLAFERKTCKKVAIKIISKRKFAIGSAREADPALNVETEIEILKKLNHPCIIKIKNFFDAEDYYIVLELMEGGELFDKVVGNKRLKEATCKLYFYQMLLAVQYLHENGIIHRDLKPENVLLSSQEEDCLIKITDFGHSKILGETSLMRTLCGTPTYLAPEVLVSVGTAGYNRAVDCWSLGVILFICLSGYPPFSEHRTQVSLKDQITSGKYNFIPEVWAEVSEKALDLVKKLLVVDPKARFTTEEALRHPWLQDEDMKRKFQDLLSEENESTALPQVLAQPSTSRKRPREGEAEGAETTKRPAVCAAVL

| Compound | pEC50 (Chk2 [1]; [5]) | other results |
| --- | --- | --- |
| C/C(=N\O)c1ccc2c(c1)C(=NO)c1cc(/C(C)=N/O)ccc1-2 [Compound 5] | ~5.40 | – |
| C/C(=N\O)c1ccc2c(c1)C(=NO)c1ccccc1-2 [Compound 6] | 5.42 to 6.22 | – |
| O=[N+]([O-])c1ccc2c(c1)C(=NO)c1cc([N+](=O)[O-])ccc1-2 [Compound 7] | – | pEC50 (Chk2 [1]): 5.40 to 6.10 |
| CCN(CC)CCCNc1ccc2nc(C)n3c4ccc(O)cc4c(=O)c1c23 [Compound 8] | ~4.70 | – |
| C/C(=N\NC(=N)N)c1ccc(NC(=O)Nc2ccc(/C(C)=N/NC(=N)N)cc2)cc1 [NSC 109555] | 7.29 | inhibitory effect on Chk1 activity (Chk1 [2]): little or no inhibitory effect; Chk2 kinase activity (autophosphorylation and histone H1 phosphorylation) (Chk2 [3]): inhibited; kinase activity of Chk1 (Chk1 [4]): did not appear to inhibit |
